{"source": "patent US20170050957A1", "about": "“4-AMINO-6-(HETEROCYCLIC)PICOLINATES AND 6-AMINO-2-(HETEROCYCLIC)PYRIMIDINE-4-CARBOXYLATES AND THEIR USE AS HERBICIDES” (Dow AgroSciences LLC, priority 2013, published 2017)", "key": {"[1]": {"system": "Key Broadleaf Weed and Crop Species", "test": "Post-emergent Test II herbicidal activity (Table 15)", "format": "in vivo", "details": "post-emergence, 336 h, 14 d; for pest or weed control at 35 g/ha: 35 g ai/ha; for pest or weed control at 70 g/ha: 70 g ai/ha; for pest or weed control at 140 g/ha: 140 g ai/ha", "method_in_brief": "(§1)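 Plants grown in greenhouse (~15 h photoperiod, 23-29 °C day, 22-28 °C night) to first or second true leaf stage, then sprayed post-emergence at 187 L/ha with a high rate and 1/2×, 1/4×, 1/8× and 1/16× dilutions. Injury scored visually after 14 d, 0-100% versus untreated plants.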"}, "[2]": {"system": "Key Grass and Sedge Weeds as well as Grass Crops", "test": "Post-emergent Test II herbicidal activity (Table 16)", "format": "in vivo", "details": "post-emergence, 336 h, 14 d; for pest or weed control at 35 g/ha: 35 g ai/ha; for pest or weed control at 70 g/ha: 70 g ai/ha; for pest or weed control at 140 g/ha: 140 g ai/ha", "method_in_brief": "as §1"}, "[3]": {"details": "Abutilon theophrasti, velvetleaf (Abutilon theophrasti), read-out: Visual Growth Reduction (%) 14 Days After Application, ABUTH"}, "[4]": {"details": "Amaranthus retroflexus, redroot pigweed (Amaranthus retroflexus), read-out: Visual Growth Reduction (%) 14 Days After Application, AMARE"}, "[5]": {"details": "Brassica napus, oilseed rape, canola (Brassica napus), read-out: Visual Growth Reduction (%) 14 Days After Application, BRSNN"}, "[6]": {"details": "Chenopodium album, lambsquarters (Chenopodium album), read-out: Visual Growth Reduction (%) 14 Days After Application, CHEAL"}, "[7]": {"details": "Euphorbia heterophylla, wild poinsettia (Euphorbia heterophylla), read-out: Visual Growth Reduction (%) 14 Days After Application, EPHHL"}, "[8]": {"details": "Helianthus annuus, sunflower (Helianthus annuus), read-out: Visual Growth Reduction (%) 14 Days After Application, HELAN"}, "[9]": {"details": "Cyperus esculentus, yellow nutsedge (Cyperus esculentus), read-out: Visual Growth Reduction (%) 14 Days After Application, CYPES"}, "[10]": {"details": "Echinochloa crus-galli, barnyardgrass (Echinochloa crus-galli), read-out: Visual Growth Reduction (%) 14 Days After Application, ECHCG"}, "[11]": {"details": "Oryza sativa, rice (Oryza sativa), read-out: Visual Growth Reduction (%) 14 Days After Application, ORYSA"}, "[12]": {"details": "Setaria faberi, giant foxtail (Setaria faberi), read-out: Visual Growth Reduction (%) 14 Days After Application, SETFA"}, "[13]": {"details": "Triticum aestivum, wheat, spring (Triticum aestivum), read-out: Visual Growth Reduction (%) 14 Days After Application, TRZAS"}, "[14]": {"details": "Zea mays, maize, corn (Zea mays), read-out: Visual Growth Reduction (%) 14 Days After Application, ZEAMX"}}, "note": "Like-named read-outs stand apart in the source and are kept apart here.", "data": [{"compound": "COC(=O)c1nc(-c2cc3occc3cc2F)c(F)c(N)c1Cl", "note": "[Compound 2.10]", "values": [{"measurement": "pest or weed control at 35 g/ha", "setting": "[1]; [3]", "value": "60 to 74", "unit": "%"}, {"measurement": "pest or weed control at 70 g/ha", "setting": "[1]; [3]", "value": "60 to 74", "unit": "%"}, {"measurement": "pest or weed control at 140 g/ha", "setting": "[1]; [3]", "value": "85 to 94", "unit": "%"}, {"measurement": "pest or weed control at 35 g/ha", "setting": "[1]; [4]", "value": "85 to 94", "unit": "%"}, {"measurement": "pest or weed control at 70 g/ha", "setting": "[1]; [4]", "value": "95 to 100", "unit": "%"}, {"measurement": "pest or weed control at 140 g/ha", "setting": "[1]; [4]", "value": "95 to 100", "unit": "%"}, {"measurement": "pest or weed control at 35 g/ha", "setting": "[1]; [5]", "value": "30 to 44", "unit": "%"}, {"measurement": "pest or weed control at 70 g/ha", "setting": "[1]; [5]", "value": "60 to 74", "unit": "%"}, {"measurement": "pest or weed control at 140 g/ha", "setting": "[1]; [5]", "value": "75 to 84", "unit": "%"}, {"measurement": "pest or weed control at 35 g/ha", "setting": "[1]; [6]", "value": "85 to 94", "unit": "%"}, {"measurement": "pest or weed control at 70 g/ha", "setting": "[1]; [6]", "value": "95 to 100", "unit": "%"}, {"measurement": "pest or weed control at 140 g/ha", "setting": "[1]; [6]", "value": "85 to 94", "unit": "%"}, {"measurement": "pest or weed control at 35 g/ha", "setting": "[1]; [7]", "value": "95 to 100", "unit": "%"}, {"measurement": "pest or weed control at 70 g/ha", "setting": "[1]; [7]", "value": "95 to 100", "unit": "%"}, {"measurement": "pest or weed control at 140 g/ha", "setting": "[1]; [7]", "value": "95 to 100", "unit": "%"}, {"measurement": "pest or weed control at 35 g/ha", "setting": "[1]; [8]", "value": "75 to 84", "unit": "%"}, {"measurement": "pest or weed control at 70 g/ha", "setting": "[1]; [8]", "value": "85 to 94", "unit": "%"}, {"measurement": "pest or weed control at 140 g/ha", "setting": "[1]; [8]", "value": "95 to 100", "unit": "%"}, {"measurement": "pest or weed control at 35 g/ha", "setting": "[2]; [9]", "value": "0 to 29", "unit": "%"}, {"measurement": "pest or weed control at 70 g/ha", "setting": "[2]; [9]", "value": "0 to 29", "unit": "%"}, {"measurement": "pest or weed control at 140 g/ha", "setting": "[2]; [9]", "value": "30 to 44", "unit": "%"}, {"measurement": "pest or weed control at 35 g/ha", "setting": "[2]; [10]", "value": "60 to 74", "unit": "%"}, {"measurement": "pest or weed control at 70 g/ha", "setting": "[2]; [10]", "value": "60 to 74", "unit": "%"}, {"measurement": "pest or weed control at 140 g/ha", "setting": "[2]; [10]", "value": "85 to 94", "unit": "%"}, {"measurement": "pest or weed control at 35 g/ha", "setting": "[2]; [11]", "value": "0 to 29", "unit": "%"}, {"measurement": "pest or weed control at 70 g/ha", "setting": "[2]; [11]", "value": "30 to 44", "unit": "%"}, {"measurement": "pest or weed control at 140 g/ha", "setting": "[2]; [11]", "value": "30 to 44", "unit": "%"}, {"measurement": "pest or weed control at 35 g/ha", "setting": "[2]; [12]", "value": "60 to 74", "unit": "%"}, {"measurement": "pest or weed control at 70 g/ha", "setting": "[2]; [12]", "value": "60 to 74", "unit": "%"}, {"measurement": "pest or weed control at 140 g/ha", "setting": "[2]; [12]", "value": "75 to 84", "unit": "%"}, {"measurement": "pest or weed control at 35 g/ha", "setting": "[2]; [13]", "value": "0 to 29", "unit": "%"}, {"measurement": "pest or weed control at 70 g/ha", "setting": "[2]; [13]", "value": "30 to 44", "unit": "%"}, {"measurement": "pest or weed control at 140 g/ha", "setting": "[2]; [13]", "value": "60 to 74", "unit": "%"}, {"measurement": "pest or weed control at 35 g/ha", "setting": "[2]; [14]", "value": "0 to 29", "unit": "%"}, {"measurement": "pest or weed control at 70 g/ha", "setting": "[2]; [14]", "value": "30 to 44", "unit": "%"}, {"measurement": "pest or weed control at 140 g/ha", "setting": "[2]; [14]", "value": "45 to 59", "unit": "%"}, {"measurement": "melting point", "value": 109, "unit": "°C"}]}, {"compound": "Nc1c(F)c(-c2ccc(Cl)c3occc23)nc(C(=O)O)c1Cl", "note": "[Compound 2.18]", "values": [{"measurement": "pest or weed control at 35 g/ha", "setting": "[1]; [3]", "value": "0 to 29", "unit": "%"}, {"measurement": "pest or weed control at 70 g/ha", "setting": "[1]; [3]", "value": "0 to 29", "unit": "%"}, {"measurement": "pest or weed control at 140 g/ha", "setting": "[1]; [3]", "value": "0 to 29", "unit": "%"}, {"measurement": "pest or weed control at 35 g/ha", "setting": "[1]; [4]", "value": "95 to 100", "unit": "%"}, {"measurement": "pest or weed control at 70 g/ha", "setting": "[1]; [4]", "value": "95 to 100", "unit": "%"}, {"measurement": "pest or weed control at 140 g/ha", "setting": "[1]; [4]", "value": "95 to 100", "unit": "%"}, {"measurement": "pest or weed control at 35 g/ha", "setting": "[1]; [5]", "value": "45 to 59", "unit": "%"}, {"measurement": "pest or weed control at 70 g/ha", "setting": "[1]; [5]", "value": "60 to 74", "unit": "%"}, {"measurement": "pest or weed control at 140 g/ha", "setting": "[1]; [5]", "value": "60 to 74", "unit": "%"}, {"measurement": "pest or weed control at 35 g/ha", "setting": "[1]; [6]", "value": "85 to 94", "unit": "%"}, {"measurement": "pest or weed control at 70 g/ha", "setting": "[1]; [6]", "value": "85 to 94", "unit": "%"}, {"measurement": "pest or weed control at 140 g/ha", "setting": "[1]; [6]", "value": "85 to 94", "unit": "%"}, {"measurement": "pest or weed control at 35 g/ha", "setting": "[1]; [7]", "value": "0 to 29", "unit": "%"}, {"measurement": "pest or weed control at 70 g/ha", "setting": "[1]; [7]", "value": "0 to 29", "unit": "%"}, {"measurement": "pest or weed control at 140 g/ha", "setting": "[1]; [7]", "value": "0 to 29", "unit": "%"}, {"measurement": "pest or weed control at 35 g/ha", "setting": "[1]; [8]", "value": "75 to 84", "unit": "%"}, {"measurement": "pest or weed control at 70 g/ha", "setting": "[1]; [8]", "value": "75 to 84", "unit": "%"}, {"measurement": "pest or weed control at 140 g/ha", "setting": "[1]; [8]", "value": "85 to 94", "unit": "%"}, {"measurement": "pest or weed control at 35 g/ha", "setting": "[2]; [9]", "value": "0 to 29", "unit": "%"}, {"measurement": "pest or weed control at 70 g/ha", "setting": "[2]; [9]", "value": "0 to 29", "unit": "%"}, {"measurement": "pest or weed control at 140 g/ha", "setting": "[2]; [9]", "value": "0 to 29", "unit": "%"}, {"measurement": "pest or weed control at 35 g/ha", "setting": "[2]; [10]", "value": "0 to 29", "unit": "%"}, {"measurement": "pest or weed control at 70 g/ha", "setting": "[2]; [10]", "value": "0 to 29", "unit": "%"}, {"measurement": "pest or weed control at 140 g/ha", "setting": "[2]; [10]", "value": "0 to 29", "unit": "%"}, {"measurement": "pest or weed control at 35 g/ha", "setting": "[2]; [11]", "value": "0 to 29", "unit": "%"}, {"measurement": "pest or weed control at 70 g/ha", "setting": "[2]; [11]", "value": "0 to 29", "unit": "%"}, {"measurement": "pest or weed control at 140 g/ha", "setting": "[2]; [11]", "value": "0 to 29", "unit": "%"}, {"measurement": "pest or weed control at 35 g/ha", "setting": "[2]; [12]", "value": "0 to 29", "unit": "%"}, {"measurement": "pest or weed control at 70 g/ha", "setting": "[2]; [12]", "value": "0 to 29", "unit": "%"}, {"measurement": "pest or weed control at 140 g/ha", "setting": "[2]; [12]", "value": "0 to 29", "unit": "%"}, {"measurement": "pest or weed control at 35 g/ha", "setting": "[2]; [13]", "value": "0 to 29", "unit": "%"}, {"measurement": "pest or weed control at 70 g/ha", "setting": "[2]; [13]", "value": "0 to 29", "unit": "%"}, {"measurement": "pest or weed control at 140 g/ha", "setting": "[2]; [13]", "value": "0 to 29", "unit": "%"}, {"measurement": "pest or weed control at 35 g/ha", "setting": "[2]; [14]", "value": "0 to 29", "unit": "%"}, {"measurement": "pest or weed control at 70 g/ha", "setting": "[2]; [14]", "value": "0 to 29", "unit": "%"}, {"measurement": "pest or weed control at 140 g/ha", "setting": "[2]; [14]", "value": "0 to 29", "unit": "%"}]}]}
